Test results from patent publication US4794116A, “Anti-allergic esters, acetal ethers, thioethers and nitrogen substituted derivatives of bicyclic compounds” (Schering Corporation, priority 1986, dated 1988).

Tests used:
[1] = test system: anaphylactic bronchospasm; assay: inhibition of anaphylactic bronchospasm in sensitized guinea pigs having antigen induced broncho-constriction; format: in vivo, guinea pig (male Hartley); conditions: for % Inhibition After 8 hr (peak increase in intratracheal pressure): 8 hours before ovalbumin challenge
Procedure: The anti-allergy method of this invention is identified by tests which measure a compound's inhibition of anaphylactic bronchospam in sensitized guinea pigs having antigen induced broncho-constriction.
In one such test procedure, male Hartley guinea pigs (250-300 g) are sensitized with 5 mg ovalbumin injected i.p. and 5 mg injected s.c. in 1 ml saline on day 1 and 5 mg ovalbumin injected i.p. on day 4. The sensitized animals are used 3-4 weeks later at which time they weigh 450-500 g.
The sensitized guinea pigs are fasted overnight and the following morning are anesthetized with 0.9 ml/kg i.p. of dialurethane (0.1 g/m diallybarbituric acid, 0.4 g/ml ethylurea and 0.4 g/ml urethane). The trachea are cannulated and the animals are ventilated by a Harvard rodent respirator at 50 strokes/minute with a stroke volume of 5 ml. A side arm to the tracheal cannula is connected to a Harvard pressure transducer to obtain a continuous measure of intratracheal pressure which is recorded on a Harvard polygraph. The jugular vein is cannulated for the i.v. administration of substances. The animals are challenged with antigen (0.5% ovalbumin) as an aerosol generated from a DeVilbiss Model 65 ultrasonic nebulizer and delivered through the tracheal cannula for 30 seconds. Bronchoconstriction is measured as the peak increase in intratracheal pressure occuring within 5 minutes after antigen challenge.
The sensitized guinea pigs are injected i.v. with 1 mg/kg propranolol, 5 mg/kg indomethacin and 2 mg/kg mepyramine given together in a volume of 1 ml/kg. Fifteen minutes later the animals are challenged with nebulized ovalbumin. Test compounds are administered orally 2 or 8 hours before challenge with ovalbumin. Suppression of anaphylactic bronchospasm is expressed as a percent inhibition of the peak increase in intratracheal pressure by comparison to a vehicle-treated control group.
*This measurement was made in a 21/2 day multipledosing regimen version o

[2] = test system: paw edema; assay: Reversed Passive Arthus Response (RPAR) Paw; format: in vivo, rat (male Lewis); conditions: oral dose of 25 mg/kg; for inhibited the paw edema at 2 hours: 2 hours post-challenge; for inhibited the paw edema at 4 hours: 4 hours post-challenge
Procedure: Reversed Passive Arthus Response (RPAR) PAW Animals, Materials and Methods
Male Lewis inbred albino rats weighing 180-200 grams obtained from Charles River Breeding Laboratories are used in these experiments. The rats are housed 3 animals/cage and food and water are allowed ad libitum. The animals are numbered 1-3 in each cage and color marked for identification purposes.
CL Drug and Reagent Preparation
All reagents and drugs are prepared just prior to the study. Crystallized and lyophilized bovine serum albumin (BSA), available from Sigma Chemical Company, is solubilized without shaking in cold, sterile, pyrogen-free saline (10 mg/ml). Lyophilized anti-bovine serum albumin (IgG fraction), obtained from Cappel Laboratories, is suspended in sterile distilled water and diluted with cold, pyrogen-free saline (PFS) just prior to use. The final concentration of anti-bovine serum albumin is 0.5 mg/ml of PFS. Both BSA and anti-BSA solutions are iced during use. Drugs are suspended or solubilized in an aqueous solution of methyl cellulose (MC) with an homogenizer just prior to administration.
Drug Administration and Induction of Inflammation
Groups of animals (6/group) are dosed with drug in MC by gavage once daily for 3 days. The last dose is administered one hour prior to sensitization with BSA. Controls are given MC alone and a drug-standard is usually included in each assay for verification purposes. Drugs are prepared and diluted so as to provide a dose for a 200 gram animal which is equivalent to the mg/kg dose for each experiment. Thus each rat receives an oral dose in a volume of approximately 2.0 cc. One hour after the last dose the animals are lightly anesthetized with ether and "sensitized" by injection of 0.2 ml of PFS containing 1.0 mg of BSA into the penile vein. One hour later, the animals are "challenged" in the right rear paw with subplantar injections of 0.2 ml of PFS containing 0.1 mg of anti-BSA. Immediately after the subplantar injection, the right paw is dipped (up to the lateral maleolus) into the mercury well of a plethysmograph. The volume of mercury displaced is converted to weight and recorded. This value is considered to be the control reading for the animal. Paw volumes are subsequently recorded with a plethysmograph during the development of the inflammation at 2 and 4 hours post-challenge.
Results are expressed by the change in paw volume (Δpaw volume) from the control reading for each animal to that recorded 2 and 4 hours post-challenge. All drug treated groups are compared to the MC control for significant differences with an analysis of variance. Differences from control in drug-treated groups are expressed as percent change from control. […]

[3] = 5 mg/kg p.o., 2 hours before ovalbumin challenge

`CC(C)(C)C(=O)Oc1c(N2CCCC2)c(=O)n(-c2ccccc2)c2ncccc12` [Example 3, 4-(2,2-dimethylpropionyloxy)-1-phenyl-3-(1-pyrrolidinyl)-1,8-naphthyridin-2(1H)-one] was tested, and the “% Inhibition After 2 hr (peak increase in intratracheal pressure)” value [1, 3] was 48%, the “% Inhibition After 8 hr (peak increase in intratracheal pressure)” value ([1]; 5 mg/kg p.o.) was 49% and the “inhibited the paw edema at 2 hours” value [2] was 28%. For the same molecule, the “inhibited the paw edema at 4 hours” value [2] was 5%.

In the case of `CC(=O)Oc1c(N2CCCC2)c(=O)n(-c2ccccc2)c2ncccc12` [Example 2, 4-acetyloxy-1-phenyl-3-(1-pyrrolidinyl)-1,8-naphthyridin-2(1H)-one], the “% Inhibition After 2 hr (peak increase in intratracheal pressure)” value ([1]; 10 mg/kg p.o., 2 1/2 day multiple-dosing regimen version of the assay) is reported as 87%.

In the case of `CCN(CC)C(=O)Oc1c(N2CCCC2)c(=O)n(-c2ccccc2)c2ncccc12` [Example 4, 4-(N,N-diethylcarbamoyloxy)-1-phenyl-3-(1-pyrrolidinyl)-1,8-naphthyridin-2(1H)-one], the “% Inhibition After 2 hr (peak increase in intratracheal pressure)” value [1, 3] is reported as 48%, the “% Inhibition After 8 hr (peak increase in intratracheal pressure)” value ([1]; 5 mg/kg p.o.) is reported as 32% and the “inhibited the paw edema at 2 hours” value [2] is reported as 54%. The “inhibited the paw edema at 4 hours” value [2] was 17%.

With `Cc1ccc(C(=O)Oc2c(N3CCCC3)c(=O)n(-c3ccccc3)c3ncccc23)cc1` [Example 1, 4-(4-methylbenzoyloxy)-1-phenyl-3(1-pyrrolidinyl)-1,8-naphthyridin-2(1H)-one] the “% Inhibition After 2 hr (peak increase in intratracheal pressure)” value [1, 3] was 30% and the “% Inhibition After 8 hr (peak increase in intratracheal pressure)” value ([1]; 5 mg/kg p.o.) was 0%.
